Data on 4 compounds can be found in EP4772500A1, “NOVEL ISOXAZOLE COMPOUND AS TM4SF5-SPECIFIC INHIBITOR AND USE THEREOF” (Seoul National University R&DB Foundation, priority 2023, dated 2025).

Common to all, as to type: cell-based, human
One test deals with SNU761-TM4SF5. Nature of the test: Western blotting of SLAMF7 expression, TM4SF5-expressing SNU761 cells. The settings on record: chloroquine 10 µM, 24 hours (FIG. 15d). How it is done:
Cell extracts were obtained from cells grown to a density of 70-80% without any treatment, or from cells treated with vehicle DMSO or drugs at the given concentrations for 24 hours. For the extract of hepatocytes or liver cancer cells, a lysis buffer (150 mM NaCl, 1% NP-40, 50 mM Tris-HCl, 0.25% sodium deoxycholate, pH 7.4) including a protease inhibitor cocktail (GenDEPOT) was used. In addition, after washing animal liver tissue twice with PBS, SDS, Na3VO4, and protease inhibitor cocktails (GenDEPOT) were added to a lysis buffer [50 mM Tris-HCl, pH 7.4, 1% NP40, 0.25% sodium deoxycholate, 150 mM NaCl, 1 mM EDTA (based on 500 ml)], followed by treatment at 4°C for 15 minutes. After centrifugation at 13,000 rpm at 4°C for 30 minutes, only the supernatant was transferred to a new microcentrifuge tube. After quantification using BCA reagent (Thermo Scientific), a 4 × sample buffer [100% glycerol 4 ml, Tris-HCl, pH 6.8, 2.4 ml, SDS 0.8 g, Bromophenol blue 4 mg, betamercaptoethanol 0.4 ml, H2O 3.1 ml (based on 10 ml)] was added, followed by boiling at 100°C for 5 minutes. After performing SDS-PAGE electrophoresis with the above samples and transferring them to Nitrocellulose Membranes Protran™ nitrocellulose membranes (Whatman), pre-treatment was performed with 5% skim milk for 1 hour. After pre-treatment, primary antibodies of p-FAK(Y861) (SC-16663), p-FAK(Y577) (SC-16665), c-Src (SC-8056), STAT3 (SC-8019), p-AKT 1/2/3(S473) (SC-7985), STATS (SC-835), Laminin γ2 (SC-393225), COL1A1 (SC-28657), CCL5(RANTES) (SC-514019) CCL20(MIP-3α) (SC-517441), SIRT1 (SC-74465), ChREBP (SC-515922), SREBP1 (SC-366513), DGAT1 (SC-271934), DGAT2 (SC-293211), MICA/B (SC-137242), SLAMF7 (SC-390840), α-tublin (SC-5286), β-actin (SC-47778), FUCA (SC-365496) (the above from Santa Cruz Biotech, USA), p-FAK(Y397) (cat # 611723), FAK (cat # 610088), p27 (cat # 610242) (the above from BD Transduction, USA), p-FAK(Y925) (#3284) p-c-Src(Y416) (#2101), p-STAT3(Y705) (#9145), p70S6K1 (#9202), p-p70S6K1(T389) (#9205), p-STAT5(Y694) (#9314), ACC (#3676), FASN (#3189), CPT1A (#12252), p-ACC(S79) (#11818), HA (#3724), PD-L1 (#13684), PD-1 (#86163), p-ERK1/2(T202/Y204) (#9101s), ERK1/2 (#9102s) (the above from Cell Signaling Tech., USA), pS10p27(S10) (ab62364), human SLAMF6 (ab224201), TIGIT (ab233404), CD34 (ab81289) (the above from Abcam, UK), mouse SLAMF6 (PA5-87823), NKG2D (PA5-102038) (the above from Thermofisher, USA), α-SMA (Sigma Aldrich, A5228), CCL2 (Invitrogen, MA5-17040), and CD155(PVR) (Biolegend, 337601), HA (Biolegend, USA), Strep-HRP(horse-radish peroxidase), StrepMAB-HRP (IBA, USA), AFP (FineTest, FNab00203) were reacted at 4°C for 15 hours. The next day, secondary antibodies were reacted, and development was performed on X-ray film using ECL (Pierce, USA). […]
After 24 hours, vehicle DMSO, drug ST-1-025, or ST-5-002 was treated at the given concentrations. […] (f) After treating NK92-EV or NK92-TM4SF5 cells with DMSO or drugs ST-2-001 (1 nM), ST-3-005 (10 nM or 1 µM), ST-5-001, or ST-5-002 (100 nM or 1 µM) for 24 hours, the expression of SLAMF7 expressed on the cell surface was analyzed through immunostaining using flow cytometry. The expression level of SLAMF7 was confirmed by adding a SLAMF7 antibody to bind with SLAMF7 and then measuring the fluorescence linked to the SLAMF7 antibody using flow cytometry. […]
(In general: Immunoblotting shows a protein as a band on a membrane.)

Test [1] deals with TM4SF5-expressing cells (SNU449T7). The experiment in a line: Western blotting for signaling factors whose phosphorylation increases in a TM4SF5-expression dependent manner. As to conditions: for phosphorylation of FAK, c-Src, STAT3, p27, S6K1, AKT, and STAT5: 5 µM, 24 hours (FIG. 9a-b); for phosphorylation of FAK, STAT3, c-Src, S6K1, Akt, and p27: given concentrations. How it is done: (§1) Cell extracts were obtained from cells grown to a density of 70-80% without any treatment, or from cells treated with vehicle DMSO or drugs at the given concentrations for 24 hours. For the extract of hepatocytes or liver cancer cells, a lysis buffer (150 mM NaCl, 1% NP-40, 50 mM Tris-HCl, 0.25% sodium deoxycholate, pH 7.4) including a protease inhibitor cocktail (GenDEPOT) was used. In addition, after washing animal liver tissue twice with PBS, SDS, Na3VO4, and protease inhibitor cocktails (GenDEPOT) were added to a lysis buffer [50 mM Tris-HCl, pH 7.4, 1% NP40, 0.25% sodium deoxycholate, 150 mM NaCl, 1 mM EDTA (based on 500 ml)], followed by treatment at 4°C for 15 minutes. After centrifugation at 13,000 rpm at 4°C for 30 minutes, only the supernatant was transferred to a new microcentrifuge tube. After quantification using BCA reagent (Thermo Scientific), a 4 × sample buffer [100% glycerol 4 ml, Tris-HCl, pH 6.8, 2.4 ml, SDS 0.8 g, Bromophenol blue 4 mg, betamercaptoethanol 0.4 ml, H2O 3.1 ml (based on 10 ml)] was added, followed by boiling at 100°C for 5 minutes. After performing SDS-PAGE electrophoresis with the above samples and transferring them to Nitrocellulose Membranes Protran™ nitrocellulose membranes (Whatman), pre-treatment was performed with 5% skim milk for 1 hour. After pre-treatment, primary antibodies of p-FAK(Y861) (SC-16663), p-FAK(Y577) (SC-16665), c-Src (SC-8056), STAT3 (SC-8019), p-AKT 1/2/3(S473) (SC-7985), STATS (SC-835), Laminin γ2 (SC-393225), COL1A1 (SC-28657), CCL5(RANTES) (SC-514019) CCL20(MIP-3α) (SC-517441), SIRT1 (SC-74465), ChREBP (SC-515922), SREBP1 (SC-366513), DGAT1 (SC-271934), DGAT2 (SC-293211), MICA/B (SC-137242), SLAMF7 (SC-390840), α-tublin (SC-5286), β-actin (SC-47778), FUCA (SC-365496) (the above from Santa Cruz Biotech, USA), p-FAK(Y397) (cat # 611723), FAK (cat # 610088), p27 (cat # 610242) (the above from BD Transduction, USA), p-FAK(Y925) (#3284) p-c-Src(Y416) (#2101), p-STAT3(Y705) (#9145), p70S6K1 (#9202), p-p70S6K1(T389) (#9205), p-STAT5(Y694) (#9314), ACC (#3676), FASN (#3189), CPT1A (#12252), p-ACC(S79) (#11818), HA (#3724), PD-L1 (#13684), PD-1 (#86163), p-ERK1/2(T202/Y204) (#9101s), ERK1/2 (#9102s) (the above from Cell Signaling Tech., USA), pS10p27(S10) (ab62364), human SLAMF6 (ab224201), TIGIT (ab233404), CD34 (ab81289) (the above from Abcam, UK), mouse SLAMF6 (PA5-87823), NKG2D (PA5-102038) (the above from Thermofisher, USA), α-SMA (Sigma Aldrich, A5228), CCL2 (Invitrogen, MA5-17040), and CD155(PVR) (Biolegend, 337601), HA (Biolegend, USA), Strep-HRP(horse-radish peroxidase), StrepMAB-HRP (IBA, USA), AFP (FineTest, FNab00203) were reacted at 4°C for 15 hours. The next day, secondary antibodies were reacted, and development was performed on X-ray film using ECL (Pierce, USA). Anti-TM4SF5C-ter (epitope region of RKKQDTPH^197) and anti-TM4SF5EC2 (CLMNGEWGYHFEDTAGA^130) were custom-made at a professional antibody production company (Pro-Sci, Poway, CA, USA).
Cell extracts were obtained before and after treating TM4SF5-non-expressing cells (SNU449Cp) and TM4SF5-expressing cells (SNU449T7) with ST-1-024 or ST-1-025 drugs at the given concentrations for 24 hours, and Western blotting was performed for signaling factors whose phosphorylation and activity increase in a TM4SF5-expression dependent manner.
(a) Cell extracts were obtained after treating TM4SF5-non-expressing cells (SNU449Cp) and TM4SF5-expressing cells (SNU449T7) with vehicle (DMSO), TSAHC, or isoxazole compounds ST-2-001, ST-2-002, ST-2-003, ST-2-004, ST-2-005, ST-2-006, ST-2-007, ST-2-008, ST-2-009, ST-2-010, or ST-2-011 at a dose of 5 µM (for 24 hours). Using these, Western blotting was performed for signaling factors whose phosphorylation and activity increase in a TM4SF5-expression dependent manner. […]

For test [2] the test system is unchanged. The experiment in a line: 3D sphere growth/proliferation. How it is done: TM4SF5-non-expressing cells (SNU449Cp) and TM4SF5-expressing cells (SNU449T7) of the same number (200 cells/well or 1000 cells/well) were added per well into Costar Ultra-Low Attachment Multiple Well Plates (CORNING), and were then treated with vehicle (DMSO) or drugs at various concentrations and cultured in a cell incubator under conditions of 37°C and 5% CO2. After repeatedly treating with the same concentrations of drugs every few days at regular intervals as indicated from the date of cell culture, the proliferation of the cells (spheres) was observed and photographed using an optical microscope on the last day of observation.
The drugs treated were the positive control drug TSAHC or the ST-1-025 isoxazole compound at the given concentrations. From the time of starting culture (0 day), (FIG. 3a) in the case of 2D culture, the number of cells was measured after treating with the drug every 24 hours, or (FIG. 3b) in a 3D environment, the proliferation of cells (spheres) was observed and photographed with an optical microscope on the 5th and 7th days after a single drug treatment at the start of culture. […]

Test [3] relates to TM4SF5-non-expressing cells (SNU449Cp). Nature of the test: Western blotting for signaling factor phosphorylation in TM4SF5-non-expressing cells. As to conditions: 5 µM, 24 hours (FIG. 9a-b, blue-lined boxes). How it is done: as §1
(a) Cell extracts were obtained after treating TM4SF5-non-expressing cells (SNU449Cp) and TM4SF5-expressing cells (SNU449T7) with vehicle (DMSO), ST-2-001, or an ST-2-001-based derivative drug at a concentration of 5 µM for 24 hours. (b) Cell extracts were obtained after treating SNU449Cp and SNU449T7 with DMSO, ST-2-001, ST-3-001, ST-3-006, ST-3-007, ST-3-010, or ST-3-011 at a concentration of 5 µM for 24 hours. (c) Cell extracts were obtained after treating SNU449Cp and SNU449T7 with DMSO, ST-2-001, ST-3-006, or ST-3-011 at the given concentrations for 24 hours. (a-c) Using the cell extracts obtained after the drug treatment, Western blotting was performed for signaling factors whose phosphorylation and activity increase in a TM4SF5-expression dependent manner.

The mark [4] stands for this setting: 0.5 or 2.5 µM, observed 6th or 10th day (FIG. 10a, b).

`CCN(CC)CCCC(C)Nc1ccnc2cc(Cl)ccc12` (stereo not drawn) [CQ, chloroquine, reference compound]: in the test with SNU761-TM4SF5, the “reduction in SLAMF7 expression” value is given as “not clearly seen”.
`CC(=O)Nc1ccc(-c2cc(-c3ccc(C(C)(C)C)cc3)on2)cc1` [ST-3-007, N-(4-(5-(4-(tert-butyl)phenyl)isoxazole-3-yl)phenyl)acetamide]: the “phosphorylation of FAK, c-Src, STAT3, p27, S6K1, AKT, and STAT5” value in test [1] was “decreased”. In test [2] (setting [4]), the “degree of three-dimensional cell proliferation” value is listed as “inhibited”. The “phosphorylation of some signaling factors” value in test [3] was “increased”.
In the case of `C=CC(=O)Nc1ccc(-c2cc(-c3ccc(OC)cc3)on2)cc1` [ST-3-010, N-(4-(5-(4-methoxyphenyl)isoxazole-3-yl)phenyl)acrylamide], in test [1], the “phosphorylation of FAK, c-Src, STAT3, p27, S6K1, AKT, and STAT5” value is listed as “decreased”. In addition, the “degree of three-dimensional cell proliferation” value is listed as “decreased” in test [2] (0.1 or 1.0 µM, observed 10th day (FIG. 10c)) and “inhibited” in test [2] (setting [4]). Further, in test [2] (0.5 or 2.5 µM (FIG. 10a, b), comparison among drugs), the “cell proliferation inhibitory effect” value was “strong”. In test [3], the “phosphorylation of some signaling factors” value was “increased”.
In the case of `Cc1ccc(S(=O)(=O)Nc2ccc(-c3cc(-c4ccc(O)cc4)no3)cc2)cc1` [ST-4-005, N-(4-(3-(4-hydroxyphenyl)isoxazole-5-yl)phenyl)-4-methylbenzenesulfonamide], the “phosphorylation of FAK, STAT3, c-Src, S6K1, Akt, and p27” value is “inhibited in many cases including STAT3, S6K1, and FAK” in test [1] (24 hours (FIG. 12a)); “inhibited” in test [1] (24 hours (FIG. 12d)). Further, the “survival/proliferation of the spheres” value in test [2] (given concentrations on the 0, 3, 6, and 9th days, observed 10th day (FIG. 12b-c)) is “inhibited”.
